How the values were obtained:
[1] = system: KYSE-150 esophageal carcinoma cell line; assay: In vitro cell-based assay: cellular proliferation via BrdU incorporation (ELISA); set-up: species or system human; details: Homo sapiens, KYSE-150, 168 hours compound incubation
Description: The primary cellular assay for JMJD2C inhibition is an assay which measures cellular proliferation via Bromodeoxyuridine (BrdU) incorporation after 168 hours of compound incubation. Cell lines tested include the JMJD2C gene amplified cell line KYSE-150. This is a quantitative ELISA assay measuring DNA incorporation of BrdU during S-phase as a direct readout of cellular proliferation.
Assay Principle: This is a colorimetric immunoassay for the quantification of cell proliferation. Cells treated for 168 hours with test compounds are assayed for their ability to go through S-phase as a measure of their proliferative potential.
Assay Method: The human KYSE-150 (SMAD4 mut, TP53 mut) esophageal carcinoma cell line was seeded at 2,000 cells/well on a 96-well tissue culture treated plate. After an overnight incubation, cells were treated with compound in an 11-point dilution series with final concentrations ranging from 100 μM to 2 nM. Cells were then incubated in the presence of compound for 168 hours. After compound incubation the cells were assayed using a BrdU Cell Proliferation ELISA (Roche). The cells were first incubated with BrdU labeling reagent for 2 hours. After 2 hours, the BrdU incorporated cells were fixed and denatured, probed with an anti-BrdU-Peroxidase antibody for 1.5 hours and washed. Finally, a tetramethylbenzidine peroxidase substrate was added to each well for 15 minutes followed by a H2SO4 stop solution. The plate was read at 450 nm, and the raw optical density data was transferred into XLFit (IDBS) for IC50 calculation using the formula: fit=(D+((Vmax*(x^n))/((x^n)+(Km^n))))

[2] = biological target: JMJD2C (Homo sapiens (Human), UniProt Q9H3R0); assay: In vitro enzyme inhibition assay for JMJD2C activity (TR-FRET); format: biochemical
Description: This assay determines the ability of a test compound to inhibit JMJD2C demethylase activity. Baculovirus expressed JMJD2C (GenBank Accession #BC143571, AA 2-372) was purchased from BPS Bioscience (Cat#50105).
The ability of test compounds to inhibit the activity of JMJD2C was determined in 384-well plate format under the following reaction conditions: 0.3 nM JMJD2C, 300 nM H3K9me3-biotin labeled peptide (Anaspec cat #64360), 2 μM alpha-ketoglutaric acid in assay buffer of 50 mM HEPES, pH7.3, 0.005% Brij35, 0.5 mM TCEP, 0.2 mg/ml BSA, 50 μM sodium L-ascorbate, and 2 μM ammonium iron(II) sulfate. Reaction product was determined quantitatively by TR-FRET after the addition of detection reagent Phycolink Streptavidin-allophycocyanin (Prozyme) and Europium-anti-di-methylated histone H3 lysine 9 (H3K9me2) antibody (PerkinElmer) in the presence of 5 mM EDTA in LANCE detection buffer (PerkinElmer) at a final concentration of 50 nM and 1 nM, respectively.
The assay reaction was initiated by the following: 2 μl of the mixture of 900 nM H3K9me3-biotin labeled peptide and 6 μM alpha-ketoglutaric acid with 2 μl of 11-point serial diluted inhibitor in 3% DMSO were added to each well of the plate, followed by the addition of 2 μl of 0.9 nM JMJD2C to initiate the reaction. The reaction mixture was incubated at room temperature for 30 minutes, and terminated by the addition of 6 μl of 5 mM EDTA in LANCE detection buffer containing 100 nM Phycolink Streptavidin-allophycocyanin and 2 nM Europium-anti-H3K9me2 antibody. Plates were read by EnVisionMultilabel Reader in TR-FRET mode (excitation at 320 nm, emission at 615 nm and 665 nm) after 1 hour incubation at room temperature. A ratio was calculated (665/615) for each well and fitted to determine inhibition constant (IC50).

Chain of JMJD2C (Q9H3R0 2-372): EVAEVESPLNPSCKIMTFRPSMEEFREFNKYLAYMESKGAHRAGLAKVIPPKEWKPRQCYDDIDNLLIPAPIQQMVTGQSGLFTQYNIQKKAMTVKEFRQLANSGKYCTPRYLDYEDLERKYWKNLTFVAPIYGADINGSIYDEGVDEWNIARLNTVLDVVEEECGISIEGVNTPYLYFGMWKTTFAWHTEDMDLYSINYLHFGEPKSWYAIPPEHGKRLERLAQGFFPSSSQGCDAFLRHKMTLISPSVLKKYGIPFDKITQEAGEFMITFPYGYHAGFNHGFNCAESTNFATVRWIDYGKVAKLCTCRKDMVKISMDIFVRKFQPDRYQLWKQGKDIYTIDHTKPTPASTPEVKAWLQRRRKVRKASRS

Row | SMILES | IC50 [1] [nM] | IC50 [2] [nM]
1 | CN(c1cccnc1)c1ccc2c(c1)CCC[C@H]2CNc1cnccc1C(=O)O [Example 12, 3-({[(1R)-6-[methyl(pyridin-3-yl)amino]-1,2,3,4-tetrahydronaphthalen-1-yl]methyl}amino)pyridine-4-carboxylic acid] | 100 to 1000 | ≤ 100
2 | C=Cc1ccc(N(C)c2ccc3c(c2)OCC[C@H]3CNc2cnccc2C(=O)O)cc1 [Example 176, 3-({[(4R)-7-[(4-ethenylphenyl)(methyl)amino]-3,4-dihydro-2H-1-benzopyran-4-yl]methyl}amino)pyridine-4-carboxylic acid] | ≤ 100 | 100 to 1000
3 | O=C(O)c1ccncc1NC[C@@H]1CCOc2cc(-c3cc(F)ccc3Cl)ccc21 [Example 45, 3-({[(4R)-7-(2-chloro-5-fluorophenyl)-3,4-dihydro-2H-1-benzopyran-4-yl]methyl}amino)pyridine-4-carboxylic acid] | 100 to 1000 | 100 to 1000
4 | CN(c1cccc(Cl)c1)c1ccc2c(c1)OCC[C@H]2CNc1cnccc1C(=O)O [Example 110, 3-({[(4R)-7-[(3-chlorophenyl)(methyl)amino]-3,4-dihydro-2H-1-benzopyran-4-yl]methyl}amino)pyridine-4-carboxylic acid] | ≤ 100 | 1000 to 10000
5 | Cc1ccccc1Oc1ccc2c(c1)CCC[C@H]2CNc1cnccc1C(=O)O [Example 58, 3-({[(1R)-6-(2-methylphenoxy)-1,2,3,4-tetrahydronaphthalen-1-yl]methyl}amino)pyridine-4-carboxylic acid] | ≤ 100 | 100 to 1000
6 | O=C(O)c1ccncc1NC[C@@H]1CCCc2cc(S(=O)(=O)c3ccccc3)ccc21 [Example 82, 3-({[(1R)-6-(benzenesulfonyl)-1,2,3,4-tetrahydronaphthalen-1-yl]methyl}amino)pyridine-4-carboxylic acid] | > 10000 | 100 to 1000
7 | CN(c1ccc(CO)cc1)c1ccc2c(c1)CCC[C@H]2CNc1cnccc1C(=O)O [Example 158, 3-({[(1R)-6-{[4-(hydroxymethyl)phenyl](methyl)amino}-1,2,3,4-tetrahydronaphthalen-1-yl]methyl}amino)pyridine-4-carboxylic acid] | 100 to 1000 | 100 to 1000
8 | C[C@H](O)c1ccc(N(C)c2ccc3c(c2)CCC[C@H]3CNc2cnccc2C(=O)O)cc1 (single isomer, unassigned) [Example 169] | ≤ 100 | –
9 | CN(c1cccc(F)c1)c1ccc2c(c1)CCC[C@H]2CNc1cnccc1C(=O)O [Example 7, 3-({[(1R)-6-[(3-fluorophenyl)(methyl)amino]-1,2,3,4-tetrahydronaphthalen-1-yl]methyl}amino)pyridine-4-carboxylic acid] | ≤ 100 | 100 to 1000
10 | Cc1cccc(N(C)c2ccc3c(c2)OCC[C@H]3CNc2cnccc2C(=O)O)n1 [Example 148, 3-({[(4R)-7-[methyl(6-methylpyridin-2-yl)amino]-3,4-dihydro-2H-1-benzopyran-4-yl]methyl}amino)pyridine-4-carboxylic acid] | 100 to 1000 | 100 to 1000
11 | O=C(O)c1ccncc1NC[C@@H]1CCCc2cc(N(CCO)c3ccccc3)ccc21 [Example 147, 3-({[(1R)-6-[(2-hydroxyethyl)(phenyl)amino]-1,2,3,4-tetrahydronaphthalen-1-yl]methyl}amino)pyridine-4-carboxylic acid] | 100 to 1000 | 100 to 1000
12 | O=C(O)c1ccncc1NC[C@@H]1CCCc2cc(N3CCCC3)ccc21 [Example 106, 3-({[(1R)-6-(pyrrolidin-1-yl)-1,2,3,4-tetrahydronaphthalen-1-yl]methyl}amino)pyridine-4-carboxylic acid] | 100 to 1000 | 100 to 1000
13 | O=C(O)c1ccncc1NC[C@@H]1CCCc2cc(Oc3ccccc3Cl)ccc21 [Example 67, 3-({[(1R)-6-(2-chlorophenoxy)-1,2,3,4-tetrahydronaphthalen-1-yl]methyl}amino)pyridine-4-carboxylic acid] | 100 to 1000 | 100 to 1000
14 | Cc1ccccc1Sc1ccc2c(c1)OCC[C@H]2CNc1cnccc1C(=O)O [Example 51, 3-({[(4R)-7-[(2-methylphenyl)sulfanyl]-3,4-dihydro-2H-1-benzopyran-4-yl]methyl}amino)pyridine-4-carboxylic acid] | 1000 to 10000 | 100 to 1000
15 | CN(c1ccc2c(c1)OCC[C@H]2CNc1cnccc1C(=O)O)c1ccc2occc2c1 [Example 136, 3-({[(4R)-7-[(1-benzofuran-5-yl)(methyl)amino]-3,4-dihydro-2H-1-benzopyran-4-yl]methyl}amino)pyridine-4-carboxylic acid] | ≤ 100 | 100 to 1000
16 | O=C(O)c1ccncc1NCC1CCOc2cc(-c3ccc(C(F)(F)F)cc3)ccc21 (stereo not shown) [Example 27, 3-[({7-[4-(trifluoromethyl)phenyl]-3,4-dihydro-2H-1-benzopyran-4-yl}methyl)amino]pyridine-4-carboxylic acid] | 1000 to 10000 | 1000 to 10000
17 | CN(c1ccc(N2CC(O)C2)cc1)c1ccc2c(c1)CCC[C@H]2CNc1cnccc1C(=O)O [Example 200, 3-({[(1R)-6-{[4-(3-hydroxyazetidin-1-yl)phenyl](methyl)amino}-1,2,3,4-tetrahydronaphthalen-1-yl]methyl}amino)pyridine-4-carboxylic acid] | 100 to 1000 | 100 to 1000
18 | CN(c1ccc2c(c1)CCC[C@H]2CNc1cnccc1C(=O)O)c1ccccc1F [Example 6, 3-({[(1R)-6-[(2-fluorophenyl)(methyl)amino]-1,2,3,4-tetrahydronaphthalen-1-yl]methyl}amino)pyridine-4-carboxylic acid] | ≤ 100 | 100 to 1000
19 | O=C(O)c1ccncc1NC[C@@H]1CCOc2cc(C3CCCCC3)ccc21 [Example 35, 3-({[(4R)-7-cyclohexyl-3,4-dihydro-2H-1-benzopyran-4-yl]methyl}amino)pyridine-4-carboxylic acid] | 1000 to 10000 | –
20 | C[C@@H](O)c1ccc(N(C)c2ccc3c(c2)CCC[C@H]3CNc2cnccc2C(=O)O)cc1 (single isomer, unassigned) [Example 168] | ≤ 100 | –
21 | O=C(O)c1ccncc1NC[C@H]1CCCc2cc(Sc3cccc(F)c3)ccc21 [Example 74, 3-({[(1S)-6-[(3-fluorophenyl)sulfanyl]-1,2,3,4-tetrahydronaphthalen-1-yl]methyl}amino)pyridine-4-carboxylic acid] | – | 1000 to 10000
22 | O=C(O)c1ccncc1NCC1CCOc2cc(N(CC(F)(F)F)c3ccccc3)ccc21 (stereo not shown) [Example 129, 3-[({7-[phenyl(2,2,2-trifluoroethyl)amino]-3,4-dihydro-2H-1-benzopyran-4-yl}methyl)amino]pyridine-4-carboxylic acid] | – | 1000 to 10000
23 | CN(c1ccc2c(c1)CCC[C@H]2CNc1cnccc1C(=O)O)c1ccc2occc2c1 [Example 137, 3-({[(1R)-6-[(1-benzofuran-5-yl)(methyl)amino]-1,2,3,4-tetrahydronaphthalen-1-yl]methyl}amino)pyridine-4-carboxylic acid] | – | 1000 to 10000
24 | O=C(O)c1ccncc1NC[C@H]1CCCc2cc(S(=O)(=O)c3ccccc3)ccc21 [Example 81, 3-({[(1S)-6-(benzenesulfonyl)-1,2,3,4-tetrahydronaphthalen-1-yl]methyl}amino)pyridine-4-carboxylic acid] | – | 100 to 1000
25 | O=C(O)c1ccncc1NC[C@@H]1CCCc2cc(Sc3cccc(F)c3)ccc21 [Example 75, 3-({[(1R)-6-[(3-fluorophenyl)sulfanyl]-1,2,3,4-tetrahydronaphthalen-1-yl]methyl}amino)pyridine-4-carboxylic acid] | – | 100 to 1000
26 | Cc1ccccc1-c1ccc2c(c1)OCC[C@@H]2CNc1cnccc1C(=O)O [Example 100, 3-({[(4S)-7-(2-methylphenyl)-3,4-dihydro-2H-1-benzopyran-4-yl]methyl}amino)pyridine-4-carboxylic acid] | – | 1000 to 10000
